Experimental data published in article PMC5408257, “Bioactive Metabolites from the Deep Subseafloor Fungus Oidiodendron griseum UBOCC-A-114129” (Marine Drugs, 2017).

Target: T1, CDC2-like kinase-1 (CLK1) (Mus musculus, UniProt P22518)
T1 construct: Recombinant GST-CLK1
Test: radiometric kinase assay with […] [gamma-33P] ATP, dose-response (n = […])
Assay type: biochemical

T1 sequence (P22518 whole entry): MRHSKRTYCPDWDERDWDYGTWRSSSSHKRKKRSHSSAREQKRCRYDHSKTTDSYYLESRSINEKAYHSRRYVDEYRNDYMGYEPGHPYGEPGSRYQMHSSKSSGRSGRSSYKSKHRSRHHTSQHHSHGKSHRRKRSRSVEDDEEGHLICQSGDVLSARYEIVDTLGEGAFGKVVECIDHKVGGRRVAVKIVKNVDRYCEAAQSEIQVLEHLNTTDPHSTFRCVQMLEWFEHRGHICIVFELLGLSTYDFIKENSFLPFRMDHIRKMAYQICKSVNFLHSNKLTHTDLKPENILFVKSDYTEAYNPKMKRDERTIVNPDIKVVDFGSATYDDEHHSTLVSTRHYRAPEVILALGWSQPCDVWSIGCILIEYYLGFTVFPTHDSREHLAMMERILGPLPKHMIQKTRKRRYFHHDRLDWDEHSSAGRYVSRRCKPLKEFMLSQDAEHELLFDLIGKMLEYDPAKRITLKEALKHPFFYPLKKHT

SMILES: CC(C)=CCc1c(O)c(O)c(O)c2c1CC(=O)OC2C (stereo not shown) [compound 3, dihydrosecofuscin]
- IC50: 56.1 µM
